Measured values reported in patent US5202350A, “Furanone anti-inflammatory agents” (Bristol-Myers Squibb Co., priority 1991, dated 1993).

Key:
[1] = target: T1, human platelet phospholipase A2 (Homo sapiens, UniProt P14555); test: PLA2 Inhibition Assay (14C-oleate labeled E. coli membrane substrate); format: biochemical; conditions: human platelet PLA2, pH 7, 37° C., 7 min preincubation, 30 min incubation
T1 construct: The enzyme was isolated from human platelets; from tissue; host or cells: human platelets
T1 sequence (P14555 21-144): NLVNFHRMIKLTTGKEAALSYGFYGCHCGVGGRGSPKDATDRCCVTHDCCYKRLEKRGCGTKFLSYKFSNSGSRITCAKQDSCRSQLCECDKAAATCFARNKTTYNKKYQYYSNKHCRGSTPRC
Procedure: The utility of the compounds of the instant invention is shown by their inhibitory activity toward human platelet phospholipase A2 and their in vivo anti-inflammatory activity. The activity against human platelet phospholipase A2 was determined as described below:
The method used is similar to that reported by Franson, et al. [Jesse R. L. and Franson R. C., Biochim Biophys Acta 575:467-470 (1979), Franson R. C., Patriarca P., and Elsback P., J Lipid Res 15:380-388 (1974)]. The enzyme was isolated from human platelets. The substrate used consisted of ^14 C-oleate labeled Escherichia coli membranes. E. coli cells were grown in the presence of ^14 C-oleic acid and then autoclaved to prepare the membranes.
Various concentrations of test compounds are preincubated with PLA2 (3.6 μg/ml in a buffer consisting of 25 mM HEPES (pH 7), 150 mM NaCl, 5.0 mM CaCl2, and 10% DMSO (v/v, test compound solvent) at 37° C. for 7 minutes. The E. coli membrane substrate is then added (0.1 mM phospholipid, 0.005 μCi ^14 C) and the reaction is then incubated at 37° C. for 30 minutes. The reaction is terminated by the addition of 1.9 ml tetrahydrofuran (THF), and the entire solution is applied to a solid-phase extraction column (aminopropyl resin, Analytichem). The column is rinsed with an additional 1 ml of THF. The free fatty acid product of the reaction is then eluted from the column with 1 ml of 2% acetic acid (v/v) in THF and collected in a scintillation vial. The amount of free fatty acid product is determined by liquid scintillation counting. The amount of inhibition produced by the test compound is calculated by comparing the counts obtained in the presence of the compound to those obtained in its absence (solvent only). Background counts were determined by performing incubations in the absence of enzyme.
Percent inhibition is determined by the equation: [formula]
IC50 values (the concentration of inhibitor required to produce 50% inhibition) were determined by linear regression analysis of a plot of % inhibition versus log test compound concentration.

ears of CD-1 mice = test: Inhibition of Phorbol-Ester-Induced inflammation (TPA ear edema); format: in vivo; conditions: topical, six hours
From the text: The method used is similar to that reported by Young, et al. [Young J. M., Wagner B. M., Spires D. A., J Invest Dermatol, 80:48-52(1983); DeYound L. M., Kheifets J. B., Ballaron S. J., Young J. M., Agents Actions 26:335-341 (1989)]. An inflammatory reaction is induced by the topical application of 0.01% (w/v) […] (TPA) to the ears of CD-1 mice. An acute inflammatory reaction is produced, resulting in ear edema. TPA, with and without various concentrations of test compound, was applied to the inner and outer aspects of the ear surface (10 μl/surface). After six hours, the mice were sacrificed and the ears removed. Ear tissue punches (5/16") were taken from each ear and weighed to measure edema.
The anti-inflammatory activity of the test compounds was determined by comparing the edema produced by TPA without test compound to that produced in its presence.
Percent inhibition values were determined by the equation: [formula]

IC50 [1] [µM]	SMILES	further results
525	CCCCCCCCCCC1CC(O)OC1=O (centres unmarked) [Example 3, 3-n-Decyl-5-Hydroxy-3,4-Dihydro-Furan-2-One]	–
> 500	CCCCCC1CC(O)OC1=O (centres unmarked) [Example 11, 3-n-Amyl-5-Hydroxy-3,4-Dihyro-Furan-2-One]	–
17	CCCCCCCCCCCC1CC(O)OC1=O (centres unmarked) [Example 5, 3-n-Undecyl-5-Hydroxy-3,4-Dihydro-Furan-2-One]	% Inhibition of Ear Edema (ears of CD-1 mice; dose 2.6% (w/v)): 34.6%

Further lines, the compound ahead of its results:

SMILES	IC50 [1] [µM]	further results
O=C1OC(O)CC1CCCCCCCc1ccccc1 (centres unmarked) [Example 9]	379	–
CCCCCCCCCCCCCCCCC1CC(O)OC1=O (centres unmarked) [Example 13, 3-n-Hexadecyl-5-Hydroxy-3,4-Dihydro-Furan-2-One]	59	% Inhibition of Ear Edema (ears of CD-1 mice; dose 2.5% (w/v)): 6.8%; % Inhibition of Ear Edema (ears of CD-1 mice; dose 5.0% (w/v)): 24.6%; % Inhibition of Ear Edema (ears of CD-1 mice; dose 7.5% (w/v)): 33.5%; % Inhibition of Ear Edema (ears of CD-1 mice; dose 10% (w/v)): 45%
CCCCCCCCCCCCC1CC(O)OC1=O (centres unmarked) [Example 7, 3-n-Dodecyl-5-Hydroxy-3,4-Dihydro-Furan-2-One]	18	–
